Measurements as given in ChEMBL document CHEMBL3044675, “Synthesis and Antifungal Activities of Some Novel Pyrimidine Derivatives” (2011).

Tests used:
Type in all cases: functional
[1] = tested on: Bipolaris maydis; test: Antifungal activity against Cochliobolus heterostrophus at 50 ug/ml by poisoned food technique
[2] = tested on: Alternaria kikuchiana; test: Antifungal activity against Alternaria kikuchiana at 50 ug/ml by poisoned food technique
[3] = tested on: Mycosphaerella arachidis; test: Antifungal activity against Mycosphaerella arachidis at 50 ug/ml by poisoned food technique
[4] = tested on: Ceratobasidium cereale; test: Antifungal activity against Ceratobasidium cereale at 50 ug/ml by poisoned food technique
[5] = tested on: Macrophoma; test: Antifungal activity against Macrophoma kuwatsukai at 50 ug/ml by poisoned food technique
[6] = tested on: Thanatephorus cucumeris; test: Antifungal activity against Thanatephorus cucumeris at 50 ug/ml by poisoned food technique
[7] = tested on: Botrytis cinerea; test: Antifungal activity against Botryotinia fuckeliana at 50 ug/ml by poisoned food technique
[8] = tested on: Sclerotinia sclerotiorum; test: Antifungal activity against Sclerotinia sclerotiorum at 50 ug/ml by poisoned food technique
[9] = tested on: Alternaria mali; test: Antifungal activity against Alternaria mali at 50 ug/ml by poisoned food technique
[10] = tested on: Phytophthora infestans; test: Antifungal activity against Phytophthora infestans at 50 ug/ml by poisoned food technique
[11] = tested on: Alternaria solani; test: Antifungal activity against Alternaria solani at 50 ug/ml by poisoned food technique
[12] = tested on: Rhizoctonia solani; test: Antifungal activity against Rhizoctonia solani at 50 ug/ml by poisoned food technique
[13] = tested on: Fusarium fujikuroi; test: Antifungal activity against Fusarium fujikuroi at 50 ug/ml by poisoned food technique
[14] = tested on: Fusarium graminearum; test: Antifungal activity against Fusarium graminearum at 50 ug/ml by poisoned food technique

SMILES	Activity [1] [%]	Activity [2] [%]	Activity [3] [%]	Activity [4] [%]	Activity [5] [%]	Activity [6] [%]	Activity [7] [%]	Activity [8] [%]	Activity [9] [%]	Activity [10] [%]	Activity [11] [%]	Activity [12] [%]	Activity [13] [%]	Activity [14] [%]
Cc1cc(Nc2ccc(OC(F)(F)F)cc2)nc(C(C)C)n1	39.1	63.6	46.7	25	25	76.5	25.9	0	50	36.4	35.3	66.7	40	44.4
Cc1cc(OC(=O)c2ccc(F)cc2)nc(C(C)C)n1	13	27.3	0	0	46.9	15.7	14.8	40	21.4	18.2	0	55.6	46.7	
COc1ccc(C(=CC(=O)N2CCOCC2)c2ccc(Cl)cc2)cc1OC [DIMETHOMORPH]	17.4	22.7	0	40	6.3	23.5	18.5	20	7.1	9.1	5.9	68.3	20	0
Cc1cc(OC(=O)c2ccc(Cl)cc2)nc(C(C)C)n1	26.1	22.7	6.7	0	37.5	0	33.3	60	21.4	13.6	0	61.9	53.3	40.7
COc1cc(C(=O)Oc2cc(C)nc(C(C)C)n2)cc(OC)c1OC	26.1	31.8	6.7	15	40.6	9.8	14.8	66.7	28.6		0	63.5	20	
Cc1cc(OC(=O)N2CCOCC2)nc(C(C)C)n1	17.4	40.9	6.7	20	31.3	19.6	18.5	0	0	0	0	61.9	6.7	7.4
Cc1cc(NC2CCCCC2)nc(C(C)C)n1	13	27.3	46.7	0	0	52.9	3.7	33.3	21.4	36.4	0	55.6	13.3	22.2
Cc1cc(OCc2ccc(Cl)nc2)nc(C(C)C)n1	34.8	45.5	13.3	35	31.3	80.4	29.6	0	21.4	22.7	41.2	63.5	20	25.9
COc1cc(OC)nc(NCc2ccc(Cl)nc2)n1	17.4	18.2	0	5	46.9	2	40.7	20	0	9.1	0	54	20	0
COc1ccc(/C(=C\C(=O)N2CCOCC2)c2ccc(F)cc2)cc1OC [FLUMORPH]	17.4	18.2	0	20	21.9	9.8	7.4	0	21.4	4.5	0	61.9	13.3	7.4
Cc1cc(OCc2cnc(Cl)s2)nc(C(C)C)n1	17.4	18.2	0	30	31.3	3.9	7.4	0	0	0	0	61.9	20	14.8
Cc1cc(Nc2ccccc2)nc(C(C)C)n1	26.1	27.3	33.3	5	21.9	39.2	7.4	0	21.4	0	11.8	57.1	0	7.4
Cc1cc(C)nc(Nc2ccccc2)n1 [PYRIMETHANIL]	91.3	100	100	40	100	98	96.3	86.7	21.4	22.7	100	77.8	20	44.4
Cc1cc(O)no1 [HYMEXAZOL]	34.8	81.8	93.3	25	50	78.4	70.4	66.7	85.7	36.4	88.2	63.5	40	33.3
COc1cc(OC)nc(NCc2cnc(Cl)s2)n1	17.4	31.8	13.3	5	46.9	2	37	0	21.4	0	5.9	60.3	26.7	29.6
COC(=O)Nc1nc2ccccc2[nH]1 [CARBENDAZIM]	69.6	81.8	53.3	100	43.8	98	63	73.3	78.6	27.3	76.5	100	60	59.3
